What was measured:
Holstein cows = experiment: nine-week comparative activity and persistency test of glycopeptides; assay type: in vivo; conditions: 600 mg/head/day
Method: Another test was carried out to determine the comparative activity of glycopeptides and their persistency in altering milk production. Holstein cows were assigned as they calved to blocks of […] cows each. Within each block a random order of treatments was assigned. A nine-week study was started two weeks following calving. All cows underwent a one week preliminary period during which they received corn silage-concentrate, grain, hay and water. During the following eight week period, in addition to the normal feed ration, one group of six animals received no treatment (controls), another group of six animals received 600 mg/head/day actaplanin, and a third group of six cows received 600 mg/head/day of glycopeptide A35512B. Average daily milk production, milk composition, and persistency of milk production were analyzed. The data in Table VI are the averages for the daily determinations for the entire nine week trial period. The table reports average milk production and milk composition of nontreated controls and treated groups. The persistency values were calculated by dividing the average milk production during the eight week treatment period by average production during the preliminary non-treatment period. Persistency values express how well the treatment groups performed after initialization of treatment compared to performance before treatment initialization. Normal persistency for the trial was expected to be about 94 to about 96 percent. All treatment groups had higher persistencies, thus indicating an observable response to treatment even during a short term.

dairy cows = conditions: cited from earlier work

SMILES	Milk Composition Fat (Holstein cows) [%]	Milk Composition Protein (Holstein cows) [%]	Milk Composition Solids (Holstein cows) [%]	protein content compared to non-treated controls (Holstein cows)	Milk Produced (Holstein cows; average of daily determinations, nine week trial) [pounds/day]	Persistency (Holstein cows; average production in eight week treatment period divided by preliminary period) [%]	fat content of milk (dairy cows)	fat-corrected-milk production (dairy cows)	volume of milk produced (dairy cows)
COC(=O)[C@H]1NC(=O)[C@H]2NC(=O)[C@H](NC(=O)[C@@H]3NC(=O)C4NC(=O)[C@H](NC(=O)[C@H](N)c5cccc(O)c5Oc5cc(O[C@@H]6O[C@H](C)[C@H](O)[C@H](O)[C@@H]6O)c(Cl)c4c5)[C@H](O)c4ccc(cc4)Oc4cc3cc(c4O[C@@H]3O[C@H](CO)[C@@H](O)[C@@H](O[C@@H]4O[C@@H](C)[C@@H](O)[C@@H](O)[C@H]4O)[C@H]3O)Oc3ccc(cc3)[C@H]2O[C@H]2C[C@](C)(N)[C@H](O)[C@H](C)O2)c2ccc(O[C@H]3O[C@@H](CO)[C@H](O)[C@@H](O)[C@@H]3O)c(c2)-c2c(O)cc(O)cc21 [A35512B]	3.36	3.36	11.44	may be enhanced	56.0	99.4	–	–	–
CC[C@@]1([C@@H]2O[C@@H]([C@H]3O[C@@](O)(CO)[C@H](C)C[C@@H]3C)C[C@@H]2C)CC[C@H]([C@]2(C)CC[C@]3(C[C@H](O)[C@@H](C)[C@@H]([C@@H](C)[C@@H](OC)[C@H](C)C(=O)O)O3)O2)O1 [monensin]	–	–	–	–	–	–	significantly reduced	unchanged	increase
